Experimental data as given in paper PMC6429214, “Design, Synthesis and Biological Evaluation of Isoxazole-Based CK1 Inhibitors Modified with Chiral Pyrrolidine Scaffolds” (Molecules, 2019).

Legend:
Assay in all cases: 33PanQinase panel
Format in all cases: biochemical
TGFB-R1 = target: T1, TGFB-R1 (Homo sapiens, UniProt P36897); conditions: TGFB-R1, 1 µM; read-out: Residual Activity (%)
T1 construct: purchased ProQinase
Procedure: (§1) Figure 5 Dendrogram representation of the selectivity profile of 29d at a concentration of 1 μM in a panel of 320 wild-type kinases (ProQinase, Freiburg, Germany). The residual kinase activity was determined compared to DMSO control. Images were generated using TREEspot Software Tool, DISCOVERX CORPORATION 2010. […]
(§2) Table S2. Selectivity profile of compound 29d. The inhibitor has been screened at a concentration of 1 µM over a panel of 320 wild-type protein kinases by ProQinase GmbH (Freiburg, Germany) using an activity-based radiometric 33PanQinase® assay. Results are presented as percentage of residual kinase activity relative to […]
(§3) control. The final DMSO concentration was 1 % in each reaction-mix. Classification of protein kinase families refers to Manning et al. (Manning, G.; Whyte, D. B.; Martinez, R.; Hunter, T.; Sudarsanam, S. The Protein Kinase Complement of the Human Genome. Science 2002, 298, 1912–1934): AGC = containing PKA, PKG, PKC families; […] = containing Cdk, MAPK, GSK3, CLK families; STE = homologs of yeast sterile 7, sterile 11, sterile 20 kinases; TK = tyrosine kinase; TKL = tyrosine kinase-like.
(§4) Kinase name Kinase family Residual Activity (%)

HIPK1 = target: T2, HIPK1 (Homo sapiens, UniProt Q86Z02); conditions: HIPK1, 1 µM; read-out: Residual Activity (%)
T2 construct: purchased ProQinase
Procedure: as §1, §2, §3, §4

PKC-zeta = target: T3, PKC-zeta (Homo sapiens, UniProt Q05513); conditions: read-out: Residual Activity (%)
T3 construct: purchased ProQinase
Procedure: as §1, §2, §3, §4

GRK2 = target: T4, GRK2 (Homo sapiens, UniProt P25098); conditions: GRK2, 1 µM; read-out: Residual Activity (%)
T4 construct: purchased ProQinase
Procedure: as §1, §2, §3, §4

PKC-iota = target: T5, PKC-iota (Homo sapiens, UniProt P41743); conditions: read-out: Residual Activity (%)
T5 construct: purchased ProQinase
Procedure: as §1, §2, §3, §4

MKNK2 = target: T6, MKNK2 (Homo sapiens, UniProt Q9HBH9); conditions: MKNK2, 1 µM; read-out: Residual Activity (%)
T6 construct: purchased ProQinase
Procedure: as §1, §2, §3, §4

PKC-epsilon = target: T7, PKC-epsilon (Homo sapiens, UniProt Q02156); conditions: read-out: Residual Activity (%)
T7 construct: purchased ProQinase
Procedure: as §1, §2, §3, §4

TYRO3 = target: T8, TYRO3 (Homo sapiens, UniProt Q06418); conditions: TYRO3, 1 µM; read-out: Residual Activity (%)
T8 construct: purchased ProQinase
Procedure: as §1, §2, §3, §4

AKT2 aa107-481 = target: T9, AKT2 aa107-481 (Homo sapiens, UniProt P31751); conditions: AKT2 aa107-481, 1 µM; read-out: Residual Activity (%)
T9 construct: purchased ProQinase
Procedure: as §1, §2, §3, §4

SGK2 = target: T10, SGK2 (Homo sapiens, UniProt Q9HBY8); conditions: SGK2, 1 µM; read-out: Residual Activity (%)
T10 construct: purchased ProQinase
Procedure: as §1, §2, §3, §4

ABL1 = target: T11, ABL1 (Homo sapiens, UniProt P00519); conditions: ABL1, 1 µM; read-out: Residual Activity (%)
T11 construct: purchased ProQinase
Procedure: as §1, §2, §3, §4

GRK4 = target: T12, GRK4 (Homo sapiens, UniProt P32298); conditions: GRK4, 1 µM; read-out: Residual Activity (%)
T12 construct: purchased ProQinase
Procedure: as §1, §2, §3, §4

DYRK1B = target: T13, DYRK1B (Homo sapiens, UniProt Q9Y463); conditions: read-out: Residual Activity (%)
T13 construct: purchased ProQinase
Procedure: as §1, §2, §3, §4

BMPR1A = target: T14, BMPR1A (Homo sapiens, UniProt P36894); conditions: read-out: Residual Activity (%)
T14 construct: purchased ProQinase
Procedure: as §1, §2, §3, §4

SYK aa1-635 = target: T15, SYK aa1-635 (Homo sapiens, UniProt P43405); conditions: SYK aa1-635, 1 µM; read-out: Residual Activity (%)
T15 construct: purchased ProQinase
Procedure: as §1, §2, §3, §4

PAK3 = target: T16, PAK3 (Homo sapiens, UniProt O75914); conditions: PAK3, 1 µM; read-out: Residual Activity (%)
T16 construct: purchased ProQinase
Procedure: as §1, §2, §3, §4

MAP4K4 = target: T17, MAP4K4 (Homo sapiens, UniProt O95819); conditions: MAP4K4, 1 µM; read-out: Residual Activity (%)
T17 construct: purchased ProQinase
Procedure: as §1, §2, §3, §4

CDK4/CycD3 = target: T18, CDK4/CycD3 (Homo sapiens, UniProt P11802); conditions: CDK4/CycD3, 1 µM; read-out: Residual Activity (%)
T18 construct: purchased ProQinase
Procedure: as §1, §2, §3, §4

CK1-delta = target: T19, CK1-delta (Homo sapiens, UniProt P48730); conditions: read-out: Residual Activity (%)
T19 construct: purchased ProQinase
Procedure: as §1, §2, §3, §4

CDC7/DBF4 = target: T20, CDC7/DBF4 (Homo sapiens, UniProt O00311); conditions: CDC7/DBF4, 1 µM; read-out: Residual Activity (%)
T20 construct: purchased ProQinase
Procedure: as §1, §2, §3, §4

BMX = target: T21, BMX (Homo sapiens, UniProt P51813); conditions: read-out: Residual Activity (%)
T21 construct: purchased ProQinase
Procedure: as §1, §2, §3, §4

RPS6KA2 = target: T22, RPS6KA2 (Homo sapiens, UniProt Q15349); conditions: RPS6KA2, 1 µM; read-out: Residual Activity (%)
T22 construct: purchased ProQinase
Procedure: as §1, §2, §3, §4

CDK5/p35NCK = target: T23, CDK5/p35NCK (Homo sapiens, UniProt Q00535); conditions: read-out: Residual Activity (%)
T23 construct: purchased ProQinase
T23 sequence (Q00535 whole entry): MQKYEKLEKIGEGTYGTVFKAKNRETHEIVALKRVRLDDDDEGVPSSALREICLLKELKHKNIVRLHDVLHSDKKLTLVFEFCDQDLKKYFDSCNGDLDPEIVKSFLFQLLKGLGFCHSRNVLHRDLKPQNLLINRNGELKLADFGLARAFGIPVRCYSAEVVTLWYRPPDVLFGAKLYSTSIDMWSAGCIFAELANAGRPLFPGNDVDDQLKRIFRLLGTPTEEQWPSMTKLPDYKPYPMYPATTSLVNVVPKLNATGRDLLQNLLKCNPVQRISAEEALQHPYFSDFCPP
T23 sequence (Q15078 whole entry partner): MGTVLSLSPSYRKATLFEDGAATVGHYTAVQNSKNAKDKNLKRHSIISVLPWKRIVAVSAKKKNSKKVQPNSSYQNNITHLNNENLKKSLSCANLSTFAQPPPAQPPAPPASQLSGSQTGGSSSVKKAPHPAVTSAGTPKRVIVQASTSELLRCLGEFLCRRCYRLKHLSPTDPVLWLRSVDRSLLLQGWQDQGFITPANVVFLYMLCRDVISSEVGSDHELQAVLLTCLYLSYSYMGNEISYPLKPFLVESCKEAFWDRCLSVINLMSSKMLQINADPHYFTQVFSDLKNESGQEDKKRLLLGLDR
Procedure: as §1, §2, §3, §4

HCK = target: T24, HCK (Homo sapiens, UniProt P08631); conditions: read-out: Residual Activity (%)
T24 construct: purchased ProQinase
Procedure: as §1, §2, §3, §4

MET = target: T25, MET (Homo sapiens, UniProt P08581); conditions: read-out: Residual Activity (%)
T25 construct: purchased ProQinase
Procedure: as §1, §2, §3, §4

ROS = target: T26, ROS (Homo sapiens, UniProt P08922); conditions: read-out: Residual Activity (%)
T26 construct: purchased ProQinase
T26 sequence (P08922 28-2347): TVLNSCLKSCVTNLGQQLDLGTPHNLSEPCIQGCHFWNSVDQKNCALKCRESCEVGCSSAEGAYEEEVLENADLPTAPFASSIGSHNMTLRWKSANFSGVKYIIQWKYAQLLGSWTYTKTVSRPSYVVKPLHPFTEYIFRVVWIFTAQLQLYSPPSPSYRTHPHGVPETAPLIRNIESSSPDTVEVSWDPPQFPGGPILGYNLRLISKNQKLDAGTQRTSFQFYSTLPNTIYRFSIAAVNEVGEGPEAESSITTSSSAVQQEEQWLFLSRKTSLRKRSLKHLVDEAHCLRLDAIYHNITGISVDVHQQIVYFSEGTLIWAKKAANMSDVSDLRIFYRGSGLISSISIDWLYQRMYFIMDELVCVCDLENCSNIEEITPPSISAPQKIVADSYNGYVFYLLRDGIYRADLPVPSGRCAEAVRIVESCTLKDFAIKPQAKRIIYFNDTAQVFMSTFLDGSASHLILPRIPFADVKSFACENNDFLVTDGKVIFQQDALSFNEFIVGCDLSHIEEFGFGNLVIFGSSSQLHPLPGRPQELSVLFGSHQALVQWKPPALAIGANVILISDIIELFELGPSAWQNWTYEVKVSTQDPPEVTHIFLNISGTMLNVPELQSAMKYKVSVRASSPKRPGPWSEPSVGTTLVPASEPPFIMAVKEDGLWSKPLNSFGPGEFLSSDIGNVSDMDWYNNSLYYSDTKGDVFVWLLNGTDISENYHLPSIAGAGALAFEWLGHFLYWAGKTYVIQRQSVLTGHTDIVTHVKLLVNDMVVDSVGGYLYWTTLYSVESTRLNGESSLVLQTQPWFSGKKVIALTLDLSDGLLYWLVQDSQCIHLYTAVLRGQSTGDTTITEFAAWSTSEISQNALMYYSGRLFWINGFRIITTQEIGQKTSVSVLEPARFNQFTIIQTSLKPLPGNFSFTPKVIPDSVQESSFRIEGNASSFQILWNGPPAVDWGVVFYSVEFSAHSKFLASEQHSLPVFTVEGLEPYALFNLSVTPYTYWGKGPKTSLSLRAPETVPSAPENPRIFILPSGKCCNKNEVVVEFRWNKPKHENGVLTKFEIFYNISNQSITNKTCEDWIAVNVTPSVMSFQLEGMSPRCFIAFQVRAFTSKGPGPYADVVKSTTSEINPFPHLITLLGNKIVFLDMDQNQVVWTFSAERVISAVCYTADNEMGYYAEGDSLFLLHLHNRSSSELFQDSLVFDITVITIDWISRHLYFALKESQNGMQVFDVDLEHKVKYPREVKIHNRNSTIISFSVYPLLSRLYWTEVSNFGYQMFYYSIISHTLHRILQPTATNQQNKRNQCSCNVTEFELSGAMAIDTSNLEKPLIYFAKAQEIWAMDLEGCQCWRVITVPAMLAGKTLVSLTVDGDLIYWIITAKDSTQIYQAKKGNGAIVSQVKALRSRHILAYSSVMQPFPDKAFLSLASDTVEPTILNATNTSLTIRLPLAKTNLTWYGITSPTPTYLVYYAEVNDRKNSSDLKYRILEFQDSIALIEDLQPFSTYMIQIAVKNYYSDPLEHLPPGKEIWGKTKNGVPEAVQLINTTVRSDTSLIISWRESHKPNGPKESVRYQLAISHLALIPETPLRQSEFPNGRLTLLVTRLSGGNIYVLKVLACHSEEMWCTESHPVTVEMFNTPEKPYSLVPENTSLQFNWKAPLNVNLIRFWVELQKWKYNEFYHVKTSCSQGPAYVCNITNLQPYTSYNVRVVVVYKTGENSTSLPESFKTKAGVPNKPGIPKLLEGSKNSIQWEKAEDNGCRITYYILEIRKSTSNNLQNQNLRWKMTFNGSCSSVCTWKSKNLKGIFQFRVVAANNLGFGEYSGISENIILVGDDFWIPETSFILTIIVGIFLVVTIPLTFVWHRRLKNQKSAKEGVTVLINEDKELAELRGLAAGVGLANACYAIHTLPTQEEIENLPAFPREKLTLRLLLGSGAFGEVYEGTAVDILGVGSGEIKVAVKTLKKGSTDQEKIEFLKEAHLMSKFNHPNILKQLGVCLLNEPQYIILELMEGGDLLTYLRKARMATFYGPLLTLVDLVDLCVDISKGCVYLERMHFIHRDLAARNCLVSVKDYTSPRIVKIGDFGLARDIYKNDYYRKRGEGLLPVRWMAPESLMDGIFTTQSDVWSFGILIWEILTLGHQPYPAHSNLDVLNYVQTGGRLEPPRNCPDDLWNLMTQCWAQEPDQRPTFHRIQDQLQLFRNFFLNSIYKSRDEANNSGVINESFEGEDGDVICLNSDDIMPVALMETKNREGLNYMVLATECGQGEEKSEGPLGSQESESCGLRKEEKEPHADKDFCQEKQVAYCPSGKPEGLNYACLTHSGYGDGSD
Procedure: as §1, §2, §3, §4

CDC42BPA = target: T27, CDC42BPA (Homo sapiens, UniProt Q5VT25); conditions: read-out: Residual Activity (%)
T27 construct: purchased ProQinase
T27 sequence (Q5VT25 whole entry): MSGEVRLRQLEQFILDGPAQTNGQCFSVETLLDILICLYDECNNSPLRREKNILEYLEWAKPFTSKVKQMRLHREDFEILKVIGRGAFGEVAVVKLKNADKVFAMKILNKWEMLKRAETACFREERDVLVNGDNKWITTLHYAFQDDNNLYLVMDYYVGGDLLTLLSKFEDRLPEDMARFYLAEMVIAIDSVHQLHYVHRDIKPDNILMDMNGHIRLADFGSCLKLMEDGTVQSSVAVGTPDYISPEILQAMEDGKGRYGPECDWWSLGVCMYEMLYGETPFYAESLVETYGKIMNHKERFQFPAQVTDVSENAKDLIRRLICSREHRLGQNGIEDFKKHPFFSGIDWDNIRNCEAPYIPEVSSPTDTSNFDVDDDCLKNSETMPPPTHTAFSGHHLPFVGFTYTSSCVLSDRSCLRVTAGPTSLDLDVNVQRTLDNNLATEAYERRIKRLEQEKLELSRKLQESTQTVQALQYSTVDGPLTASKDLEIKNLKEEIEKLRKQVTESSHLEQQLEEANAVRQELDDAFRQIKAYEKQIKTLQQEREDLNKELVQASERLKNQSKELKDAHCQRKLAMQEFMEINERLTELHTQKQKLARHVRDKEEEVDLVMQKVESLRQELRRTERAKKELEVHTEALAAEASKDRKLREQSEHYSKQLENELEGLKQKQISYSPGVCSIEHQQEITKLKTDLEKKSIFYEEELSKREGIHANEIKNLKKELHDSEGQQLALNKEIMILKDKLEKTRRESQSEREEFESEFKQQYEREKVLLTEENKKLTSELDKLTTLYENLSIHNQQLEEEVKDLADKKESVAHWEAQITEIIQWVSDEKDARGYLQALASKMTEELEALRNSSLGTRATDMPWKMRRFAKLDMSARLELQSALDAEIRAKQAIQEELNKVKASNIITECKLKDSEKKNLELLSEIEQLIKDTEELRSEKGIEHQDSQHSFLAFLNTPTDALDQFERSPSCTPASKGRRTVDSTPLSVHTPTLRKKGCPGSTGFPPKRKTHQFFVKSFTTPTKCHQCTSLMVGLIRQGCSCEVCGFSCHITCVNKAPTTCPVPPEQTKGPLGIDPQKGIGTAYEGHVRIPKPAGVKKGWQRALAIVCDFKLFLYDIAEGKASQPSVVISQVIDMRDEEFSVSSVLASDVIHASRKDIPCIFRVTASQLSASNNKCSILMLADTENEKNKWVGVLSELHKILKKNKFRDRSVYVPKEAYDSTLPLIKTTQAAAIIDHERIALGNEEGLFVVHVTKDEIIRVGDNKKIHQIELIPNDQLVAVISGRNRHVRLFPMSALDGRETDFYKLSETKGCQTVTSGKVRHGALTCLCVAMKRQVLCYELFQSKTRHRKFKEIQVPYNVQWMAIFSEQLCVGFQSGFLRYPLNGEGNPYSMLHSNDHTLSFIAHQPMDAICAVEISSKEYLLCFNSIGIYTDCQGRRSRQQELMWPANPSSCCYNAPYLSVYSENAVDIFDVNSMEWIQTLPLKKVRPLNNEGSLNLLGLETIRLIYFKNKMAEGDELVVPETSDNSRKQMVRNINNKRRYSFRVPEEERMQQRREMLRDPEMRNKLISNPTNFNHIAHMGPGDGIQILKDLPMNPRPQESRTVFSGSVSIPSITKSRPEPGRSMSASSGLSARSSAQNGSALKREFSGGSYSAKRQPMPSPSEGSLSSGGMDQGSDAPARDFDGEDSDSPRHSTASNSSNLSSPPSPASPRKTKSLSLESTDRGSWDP
Procedure: as §1, §2, §3, §4

NEK1 = target: T28, NEK1 (Homo sapiens, UniProt Q96PY6); conditions: NEK1, 1 µM; read-out: Residual Activity (%)
T28 construct: purchased ProQinase
Procedure: as §1, §2, §3, §4

CK1-epsilon = target: T29, CK1-epsilon (Homo sapiens, UniProt P49674); conditions: read-out: Residual Activity (%)
T29 construct: purchased ProQinase
Procedure: as §1, §2, §3, §4

BRSK1 = target: T30, BRSK1 (Homo sapiens, UniProt Q8TDC3); conditions: BRSK1, 1 µM; read-out: Residual Activity (%)
T30 construct: purchased ProQinase
Procedure: as §1, §2, §3, §4

T1 sequence (P36897 34-503): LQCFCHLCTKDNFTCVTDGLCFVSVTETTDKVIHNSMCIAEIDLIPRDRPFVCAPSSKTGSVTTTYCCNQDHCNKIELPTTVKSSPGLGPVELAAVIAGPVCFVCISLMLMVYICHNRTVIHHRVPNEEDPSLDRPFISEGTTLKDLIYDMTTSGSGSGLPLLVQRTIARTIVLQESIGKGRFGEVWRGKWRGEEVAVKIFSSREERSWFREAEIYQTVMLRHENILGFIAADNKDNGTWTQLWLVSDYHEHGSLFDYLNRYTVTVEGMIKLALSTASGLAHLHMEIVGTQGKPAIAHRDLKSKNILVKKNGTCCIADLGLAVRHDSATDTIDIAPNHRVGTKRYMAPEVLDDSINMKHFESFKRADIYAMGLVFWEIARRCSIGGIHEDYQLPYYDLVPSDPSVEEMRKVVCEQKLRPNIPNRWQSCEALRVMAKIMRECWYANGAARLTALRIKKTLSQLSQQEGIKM

## COc1ccc(-c2cc(C(=O)Nc3cc(-c4c(-c5ccc(F)cc5)noc4C(C)C)ccn3)n(CC3NCC(O)C3O)c2)cc1 (stereo not drawn) [29d]
TGFB-R1
  remaining activity at 1 µM: 102%
HIPK1
  remaining activity at 1 µM: 98%
PKC-zeta
  remaining activity at 1 µM: 123%
GRK2
  remaining activity at 1 µM: 87%
PKC-iota
  remaining activity at 1 µM: 88%
MKNK2
  remaining activity at 1 µM: 92%
PKC-epsilon
  remaining activity at 1 µM: 84%
TYRO3
  remaining activity at 1 µM: 115%
AKT2 aa107-481
  remaining activity at 1 µM: 107%
SGK2
  remaining activity at 1 µM: 101%
ABL1
  remaining activity at 1 µM: 95%
GRK4
  remaining activity at 1 µM: 111%
DYRK1B
  remaining activity at 1 µM: 104%
BMPR1A
  remaining activity at 1 µM: 96%
SYK aa1-635
  remaining activity at 1 µM: 148%
PAK3
  remaining activity at 1 µM: 81%
MAP4K4
  remaining activity at 1 µM: 83%
CDK4/CycD3
  remaining activity at 1 µM: 98%
CK1-delta
  remaining activity at 1 µM: 1%
CDC7/DBF4
  remaining activity at 1 µM: 94%
BMX
  remaining activity at 1 µM: 96%
RPS6KA2
  remaining activity at 1 µM: 93%
CDK5/p35NCK
  remaining activity at 1 µM: 100%
HCK
  remaining activity at 1 µM: 110%
MET
  remaining activity at 1 µM: 89%
ROS
  remaining activity at 1 µM: 88%
CDC42BPA
  remaining activity at 1 µM: 100%
NEK1
  remaining activity at 1 µM: 101%
CK1-epsilon
  remaining activity at 1 µM: 4%
BRSK1
  remaining activity at 1 µM: 104%
